Source: patent publication US11248016B2, “Glycolipids and pharmaceutical compositions thereof for use in therapy” (THE UNIVERSITY OF NOTTINGHAM, priority 2014, dated 2022)

Experiments:
[1] = test system: firefly luciferase translation reporter; assay: Firefly luciferase translation reporter assay; assay type: cell-based, human
Source text: Graphs represent 4 biological repetitions per treatment—2 independent treatments of a compound of Formula II.
Graphs represent 4 biological repetitions per treatment. […] No difference is observed between Hippuristanol and Hippuristanol plus a compound of Formula II.
The degree of translation inhibition is shown to be equivalent to that of a known inhibitor of translation, hippuristanol (FIGS. 3b and 5). Comparative structured 5′UTR firefly luciferase reporter experiments conducted using either hippuristanol or a compound of Formula II show the inhibition of reporter levels is equivalent.
(§1) Cells were transfected using FuGene 6 (Roche) following the manufacturer's instructions. The activities of firefly and renilla luciferase in lysates prepared from transfected cells were measured using a commercially available Luciferase reporter assay system (Promega) and light emission was measured over a 10 sec interval using a TECAN luminometer. For each experiment described, data was obtained from a minimum of at least 3 biological repetitions per treatment.

actin 5′UTR = assay: 5′UTR firefly luciferase reporter assay, actin; assay type: cell-based, human; details: Neuroblastoma cells; FIG. 3d
Experimental: (§2) The 5′UTRs of genes which negatively associate with the progression of Alzheimer's disease—amyloid precursor protein (APP) and beta secretases (BACE) are all inhibited by treatment with a compound of Formula II, whereas the equivalent reporter levels of housekeeping genes actin and thioredoxin (TXN) are not inhibited. […] Neuroblastoma cells were transfected 24 hours prior to treatment with a compound of Formula II. After treatment, cells were prepared as described in the materials and methods. Each experiment represents between 6 and 8 biological repetitions.
(§3) Experiments conducted using Firefly luciferase reporter plasmids containing the 5′ untranslated regions (UTRs) of the genes amyloid precursor protein (APP), thioredoxin (TXN) were conducted with reagents and materials described by Bottley et al, 2010. Experiments conducted using Firefly luciferase reporter plasmids containing the 5′ UTRs of the genes EGFR, BACE1 and Actin were conducted with reagents and materials described by Webb, 2012 (http://etheses.nottingham.ac.uk/2724/). […]
as §1, with “For each experiment described, data was obtained from a minimum of at least 3 biological repetitions per treatment.” left out

thioredoxin (TXN) 5′UTR = assay: 5′UTR firefly luciferase reporter assay, TXN; assay type: cell-based, human; details: Neuroblastoma cells; FIG. 3d
Experimental: as §2, §3
as §1, with “For each experiment described, data was obtained from a minimum of at least 3 biological repetitions per treatment.” left out

NLGN2 5′UTR = assay: NLGN translation reporter assay, neuroligin 2; assay type: cell-based, human; details: equivalent treatment; FIG. 5 and FIG. 10
Experimental: The mechanism of action and level of activity of Formula II are consistent with and comparative to a proven translational inhibitor extracted from a rare coral species (Hippuristanol—a proven inhibitor of eIf4A). In this experiment 1 μM of Hippuristanol and 1.3 μM of Formula I was used
FIG. 10—Compound 46, NLGN Translation reporter assay.
Treatment with the compound of Formula II (and compound 46) (FIG. 5 and FIG. 10) selectively decrease the firefly luciferase signal from a reporter construct containing the NLGN1 5′UTR upstream of a firefly luciferase gene. The translation of luciferase reporters downstream of the NLGN1 5′UTR has been proven to be dependent on the activity of the translation initiation complex eIF4F (Gkogkas et al Nature 2013, 493:371-7)—a complex containing the helicase eIF4A. […]
as §1, with “For each experiment described, data was obtained from a minimum of at least 3 biological repetitions per treatment.” left out

[2] = test system: A549 lung carcinoma cells; assay: Cell proliferation, A549 (WST-1 / MTT); assay type: cell-based
Experimental: Cisplatin™ resistant A549 lung cancer cells were sensitised to treatment with a compound of Formula II in combination with 1 μM Cisplatin™—a complete kill is achieved at higher doses of a compound of Formula II.
Cells were treated with a range of doses of active for either 48 or 96 hrs. Each data point is representaive of at least 4 biological repetitions.
Cells were treated with either 2 μM Cisplatin™ alone, c. 1 μg active alone or c. 1 μg active in combination with 2 μM Cisplatin™. A WST-1 cell proliferation assay was performed 96 hrs after treatment. Experiment represents 4 independent biological repetitions.
A WST-1 cell proliferation assay was performed 72 hrs after treatment. Experiment represents 4 independent biological repetitions.
Cells were treated with either 2 μM or 10 μM Cisplatin™ alone, or 10 μg synthetic molecule Formula II in combination with 2 μM Cisplatin™. A WST-1 cell proliferation assay was performed 72 hrs after treatment. Experiment represents 4 independent biological repetitions. A 5-fold increase in the efficacy of Cisplatin™ is observed when treated in combination with the synthetic Formula II.
Cells were treated with either 2 μM, 5 μM or 10 μM Cisplatin™ alone, 50 μg synthetic acetyl derivative molecule or 30 μg in combination with 2 μM Cisplatin™. A WST-1 cell proliferation assay was performed 72 hrs after treatment. Experiment represents four independent biological repetitions. No effect was detected after treatment with 50 μg synthetic acetyl derivative, however an 8-fold increase in the efficacy of Cisplatin™ is observed when treated in combination with 30 μg synthetic acetyl derivative and […] Cisplatin™.
FIG. 11—Natural molecule plus cisplatin compared to Hippuristanol plus cisplatin. […] The ratio between anti-proliferative activity to chemo sensitizing activity is also equivalent.
FIG. 13—Dose curves of compounds 46, 99 and 123. […] Cells were treated with a range of doses of active for 96 hrs. Each data point is representative of at least 4 biological repetitions and error=s.e.m).
FIG. 14—Cisplatin™ combination experiments—Compounds 46, 99 and 123. […] Cells were treated with a range of doses of active in combination with a range of doses of Cisplatin™ for 96 hrs. Each data point is representative of at least 4 biological repetitions and error=s.e.m).
Prior to treatment cells were cultured to an appropriate confluency in 96 well tissue culture plates (Fisher). Cells remained either supplemented with fresh media or treated with fresh media containing active or an equivalent volume of DMSO (vehicle control). Where used, Cisplatin™ was diluted to a stock concentration in Dimethylformamide (DMF), then handled as per the manufacturer's instructions. To determine relative cell viability, reagents WST-1 (Roche) or MTT (Sigma) were used as per the manufacturer's instructions and absorbance at 450 nm measured using a Victor plate reader (Perkin Elmer).

[3] = test system: SH-SY5Y neuroblastoma cancer cells; assay: Cell proliferation, SH-SY5Y; assay type: cell-based; details: 96 hours, plus 2.5 μM Cisplatin, higher doses (10 μg) of Formula II

CC/C=C\C/C=C\C/C=C\CCCCCCCC(=O)OC[C@H](COC1OC(CO)C(O)C(O)C1O)OC(=O)CCCCCCC/C=C\C/C=C\C/C=C\CC (stereo partly drawn) [Formula II, 1,2-dioctadecatienyl-3-O-β-D-galactosyl-sn-glycerol]
difference between Hippuristanol and Hippuristanol plus Formula II ([1]; Hippuristanol 1 μM, 4 hrs, FIG. 3c): No difference
inhibition of translation reporter ([1]; Hippuristanol (1 μM) plus Formula II, 4 hrs, FIG. 3c): significant inhibition
inhibition of translation reporter activity ([1]; neuroblastoma cells, treated 4 hrs, compound alone, FIG. 3b): equivalent to treatment with 1 μM Hippuristanol
firefly luciferase reporter levels, actin 5′UTR (actin 5′UTR): not inhibited
firefly luciferase reporter levels, TXN 5′UTR (thioredoxin (TXN) 5′UTR): not inhibited
signal of NLGN2 5′UTR firefly luciferase reporter (NLGN2 5′UTR): little effect
increase in the efficacy of Cisplatin ([2]; 10 μg synthetic Formula II plus 2 μM Cisplatin, WST-1, 72 hrs, FIG. 9b): 5 fold
kill of A549 cells in combination with Cisplatin ([2]; 96 hours, plus 1 μM Cisplatin, higher doses of Formula II): complete kill
anti-proliferative activity on A549 cells ([2]; alone, FIG. 11): anti-proliferative
efficacy of Cisplatin on A549 cells in combination ([2]; c. 1 μg active plus 2 μM Cisplatin, WST-1, 96 hrs, FIG. 7): significant increase in the efficacy
sensitizing effect to Cisplatin on A549 cells ([2]; in combination with Cisplatin (2 μM), FIG. 11): equivalent to hippuristanol
growth of A549 cells ([2]; range of doses, 48 or 96 hrs, WST-1 and MTT, compound purified from natural source, FIG. 6): inhibits the growth
A549 cell growth, synthetic molecule ([2]; synthetic Formula II, WST-1, 72 hrs, FIG. 9a): inhibited by Formula II in a dose dependent manner
kill of SH-SY5Y cells in combination with Cisplatin [3]: complete kill
